Test: molar heat capacity at constant pressure; xn = mol fraction of the nth substance listed
Conditions: 101 kPa, Liquid

NCCCO [3-amino-1-propanol] + O
molar heat capacity at constant pressure [J/K/mol]
Conditions	x1 = 0.0999	x1 = 0.2001	x1 = 0.3003	x1 = 0.4015	x1 = 0.4996	x1 = 0.6006	x1 = 0.7003	x1 = 0.8003	x1 = 0.8966	x1 = 1
303.15 K	94	108	120	131	143	155	168	180	193	204
308.15 K	96	111	123	135	147	159	171	184	196	207
313.15 K	97	112	124	136	148	160	172	185	197	208
318.15 K	98	113	126	138	150	162	173	186	198	208
323.15 K	99	115	128	140	152	163	175	187	199	209
328.15 K	101	117	130	142	154	166	177	189	200	210
333.15 K	103	119	132	145	157	169	179	191	202	211
338.15 K	106	122	135	148	160	172	182	193	204	213
343.15 K	110	126	139	151	163	175	185	196	206	214
348.15 K	114	130	143	155	167	179	188	198	208	216
353.15 K	119	135	147	160	172	183	192	201	210	217
